Assay [1] addresses T1, human wild type C-Raf (Homo sapiens, UniProt P04049).
T1 construct: made in house
The assay can be described thus: Enzymatic assay of C-Raf kinase activity (Raf/MEK1 ATPase, coupled PK/LDH, A340). The conditions noted are these: read-out: Enzyme IC50, nM C-Raf. The class given is biochemical. How it is done: Test compounds are evaluated for their inhibitory activities against one or more of human wild type B-Raf, human wild type C-Raf, human B-Raf V600E, human B-Raf V600E+T529I or human B-Raf V600E+G468A. T529I is a threonine to isoleucine B-Raf gatekeeper mutation and G468A is a B-Raf secondary mutation at G1403C in exon 11. The enzymatic assays of B-Raf, C-Raf and B-Raf mutations evaluate a property of Raf and MEK1 complex, which in the presence of ATP, catalyzes an enhanced ATP hydrolysis (Rominger, et al, Arch. Biochem. Biophys. 2007, 464: 130-137; US Patent Publication No. 2006/0211073). The ADP formed is monitored by the well-known coupled PK/LDH (pyruvate kinase/lactate dehydrogenase) system in the form of NADH oxidation, which can be monitored and detected spectrophotometrically by absorbance at 340 nm (A340; for principal of the method see Schindler et al, Science, 2000, 289: 1938-1942). Raf activated MEK1 ATPase activity is a property shared by all forms of Raf proteins.
Test compounds are evaluated for their inhibitory activities against one or more of wild type B-Raf, wild type C-Raf, B-Raf V600E, B-Raf V600E+T529I and B-Raf V600E+G468A. T529I is a B-Raf gatekeeper mutation and G468A is a B-Raf secondary mutation. The enzymatic assays of B-Raf, C-Raf and B-Raf mutations evaluate a property of Raf and MEK1 complex, which in the presence of ATP, catalyzes an enhanced ATP hydrolysis (Rominger, et al, Arch. Biochem. Biophys. 2007, 464: 130-137). The ADP formed is monitored by the well-known coupled PK/LDH (pyruvate kinase/lactate dehydrogenase) system in the form of NADH oxidation, which can be monitored and detected by absorbance at 340 nm (A340; for principal of the method see Schindler et al, Science, 2000, 289: 1938-1942). Raf activated MEK1 ATPase activity is a property shared by all forms of Raf proteins. In the B-Raf wild type enzymatic assay, the reaction mixture contains 1.2 nM B-Raf, 30 nM MEK1, 1000 uM ATP, 3.5 units (per 100 ul) of PK, 5 units (per 100 ul) of LDH, 1 mM phosphoenol pyruvate (PEP), and 280 uM of NADH. In the C-Raf assay, the reaction mixture contains 0.6 nM C-Raf, 26 nM MEK1, 2000 uM ATP, and the same amount of PK, LDH, PEP and NADH as above. In the B-Raf V600E assay, the reaction mixture contains […] B-Raf V600E, 26 nM MEK1, 200 uM ATP and the same amount of PK, LDH, PEP and NADH as above. In the B-RafV600E+T529I assay, the reaction mixture contains 6.2 nM B-Raf V600E+T529I, 30 nM MEK1, 200 uM ATP and the same amount of PK, LDH, PEP and NADH as above. In the B-Raf V600E+G468A assay, the reaction mixture contains 3.5 nM B-Raf, 30 nM MEK1, 200 uM ATP and the same amount of PK, LDH, PEP and NADH as above. All assays are started by mixing the above mixture with test compound and monitoring at A340 continuously for approximately 5 hr. […] In the aforementioned assays, the enzyme constructs can be screened prior to or after cleavage of the N-terminal purification tag.

Assay [2] has as its target T2, human wild type c-KIT (Homo sapiens, UniProt P10721).
T2 construct: GST (N); made in house
Kind of assay: Enzymatic assay of c-Kit kinase activity (poly E4Y phosphorylation, coupled PK/LDH). It counts as biochemical. The text has this:
c-Kit is an important oncogene, and its overexpression and genetic mutations often occur in melanoma and gastrointestinal stromal tumor (GIST) patients. In the c-Kit enzymatic assay, the phosphorylation of poly E4Y by ATP catalyzed by human c-Kit is monitored spectrophotometrically. The ADP produced from the kinase reaction is coupled to pyruvate kinase/lactate dehydrogenase (PK/LDH) reactions where NAD is formed from pyruvate and NADH. NADH can be detected by absorbance at 340 nm, as described above for enzymatic assays of kinase activities of B-Raf, C-Raf and B-Raf mutations.
The assay reaction mixture includes 6 nM human wild type c-KIT, 1 mg/mL Poly (Glu,Tyr) (Sigma), 1 mM Phosphoenol-pyruvate, 280 μM NADH, 5 U/3.5 U (per 100 ul) Pyruvate Kinase/Lactate Dehydrogenase, 85 mM Tris, pH 7.5, 17 mM MgCl2, 0.0042% Triton® X-100, 0.005% BSA, 1% DMSO. Test compound is incubated with the reaction mixture for 0.5 hour before adding 200 μM ATP to start the reaction at 30° C.

In assay [3] the test system is HCT-116 cells. The assay can be described thus: HCT-116 cell proliferation assay (resazurin). The class given is cell-based. The following applies: Homo sapiens, K-Ras mutation B-Raf wild type, read-out: Cell Proliferation Inhibition IC50, nM HCT-116.
In assay [4] the test system is A375 cells. The assay can be described thus: A375 cell proliferation assay (CellTiter-Blue/resazurin). The class given is cell-based. The following applies: Homo sapiens, A-375, V600E mutation, read-out: Cell Proliferation Inhibition IC50, nM A375. How it is done: A375 cells (catalog #CRL-1619) are obtained from the American Type Culture Collection (ATCC, Manassas, Va.). Briefly, cells are grown in DMEM High Glucose supplemented with 10% characterized fetal bovine serum (Invitrogen, Carlsbad, Calif.) and 1% Penicillin/Streptomycin/L-Glutamine at 37 degrees Celsius, 5% CO2, and 95% humidity. Cells are allowed to expand until reaching 70-95% confluency at which point they are subcultured or harvested for assay use. A serial dilution of test compound is dispensed into a 384-well black clear bottom plate in triplicate. Six hundred twenty-five cells are added per well in 50 μL complete growth medium in the 384-well plate. Plates are incubated for 67 hours at 37 degrees Celsius, 5% CO2, and 95% humidity. At the end of the incubation period, 10 μL of a 440 μM solution of resazurin (Sigma, St. Louis, Mo.) in PBS is added to each well of the plate and plates are incubated for an additional 5 hours at 37 degrees Celsius, 5% CO2, and 95% humidity. Plates are read on a Synergy2 reader (Biotek, Winooski, Vt.) using an excitation of 540 nm and an emission of 600 nm. Data is analyzed using Prism software (Graphpad, San Diego, Calif.) to calculate IC50 values.
The A375, HT-29, and Colo-205 cells (ATCC) harbor a V600E mutation.

Bounds are passed on as bounds.

T1 sequence (P04049 whole entry): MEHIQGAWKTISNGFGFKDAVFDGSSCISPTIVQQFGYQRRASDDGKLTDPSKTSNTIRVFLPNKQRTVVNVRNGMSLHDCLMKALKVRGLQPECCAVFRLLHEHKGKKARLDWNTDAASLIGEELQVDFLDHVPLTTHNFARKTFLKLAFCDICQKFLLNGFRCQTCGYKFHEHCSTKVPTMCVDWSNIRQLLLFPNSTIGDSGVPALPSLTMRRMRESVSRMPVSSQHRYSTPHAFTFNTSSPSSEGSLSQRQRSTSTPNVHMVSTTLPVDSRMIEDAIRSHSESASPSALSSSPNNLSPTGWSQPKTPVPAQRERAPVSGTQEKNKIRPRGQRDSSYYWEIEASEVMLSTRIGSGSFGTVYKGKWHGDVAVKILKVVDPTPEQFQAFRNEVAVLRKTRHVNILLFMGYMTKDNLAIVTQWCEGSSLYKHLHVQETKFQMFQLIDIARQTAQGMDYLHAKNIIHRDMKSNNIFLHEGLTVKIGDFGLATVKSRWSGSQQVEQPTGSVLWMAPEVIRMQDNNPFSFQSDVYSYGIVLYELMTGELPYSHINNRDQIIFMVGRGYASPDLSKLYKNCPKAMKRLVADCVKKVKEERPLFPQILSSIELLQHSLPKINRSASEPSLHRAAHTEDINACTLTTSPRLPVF
T2 sequence (P10721 26-976): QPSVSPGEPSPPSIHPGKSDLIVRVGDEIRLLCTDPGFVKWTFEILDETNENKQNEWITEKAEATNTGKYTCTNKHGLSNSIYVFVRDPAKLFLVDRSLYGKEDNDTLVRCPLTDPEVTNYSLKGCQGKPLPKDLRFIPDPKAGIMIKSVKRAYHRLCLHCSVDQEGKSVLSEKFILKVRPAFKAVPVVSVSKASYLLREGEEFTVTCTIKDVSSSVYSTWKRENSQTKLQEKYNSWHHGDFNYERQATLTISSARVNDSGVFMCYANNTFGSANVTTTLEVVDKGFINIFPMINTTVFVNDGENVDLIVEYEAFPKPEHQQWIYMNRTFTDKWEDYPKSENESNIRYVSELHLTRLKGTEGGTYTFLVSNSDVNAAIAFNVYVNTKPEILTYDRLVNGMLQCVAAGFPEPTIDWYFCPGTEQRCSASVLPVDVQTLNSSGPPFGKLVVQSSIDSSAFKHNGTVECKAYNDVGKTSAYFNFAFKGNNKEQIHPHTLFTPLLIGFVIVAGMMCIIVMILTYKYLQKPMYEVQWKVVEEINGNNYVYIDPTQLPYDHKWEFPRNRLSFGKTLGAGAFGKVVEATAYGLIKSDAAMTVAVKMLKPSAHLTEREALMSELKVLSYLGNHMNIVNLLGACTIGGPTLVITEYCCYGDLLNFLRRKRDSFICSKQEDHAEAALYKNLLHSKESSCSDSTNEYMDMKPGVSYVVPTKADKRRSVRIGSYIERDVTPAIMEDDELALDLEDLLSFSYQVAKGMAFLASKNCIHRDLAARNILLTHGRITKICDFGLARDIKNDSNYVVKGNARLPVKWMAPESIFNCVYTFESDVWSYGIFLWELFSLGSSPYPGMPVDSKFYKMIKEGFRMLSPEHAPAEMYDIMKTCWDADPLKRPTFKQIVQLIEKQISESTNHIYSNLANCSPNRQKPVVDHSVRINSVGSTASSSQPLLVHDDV

Consider `CNc1ncc2cc(-c3cc(NC(=O)NCCC(C)(C)C#N)c(F)cc3F)c(C)nc2n1` [Example 12, 1-(3-Cyano-3-methylbutyl)-3-(2,4-difluoro-5-(7-methyl-2-(methylamino)pyrido[2,3-d]pyrimidin-6-yl)phenyl)urea], for which the IC50 was below 150 nM in assay [1], below 0.15 µM in assay [2], 1000 to 10000 nM in assay [3] and 1000 to 10000 nM in assay [4].

On to `CNc1ncc2cc(-c3cc(NC(=O)NCCC4(C(F)(F)F)CC4)c(F)cc3C)c(C)nc2n1` [Example 30, 1-(2-Fluoro-4-methyl-5-(7-methyl-2-(methylamino)pyrido[2,3-d]pyrimidin-6-yl)phenyl)-3-(2-(1-(trifluoromethyl)cyclopropyl)ethyl)urea], for which the IC50 was below 150 nM in assay [1], below 0.15 µM in assay [2], 100 to 1000 nM in assay [3] and below 100 nM in assay [4].

Consider `CNc1ncc2cc(-c3cc(NC(=O)NCCC(C)(C)F)c(F)cc3C)cnc2n1` [Example 34, 1-(3-Fluoro-3-methyl-butyl)-3-[2-fluoro-4-methyl-5-(2-methylaminopyrido[2,3-d]pyrimidin-6-yl)phenyl]urea], for which the IC50 was below 150 nM in assay [1], below 0.15 µM in assay [2], 100 to 1000 nM in assay [3] and 100 to 1000 nM in assay [4].

Take `Cc1cc(F)c(NC(=O)NCCC(C)(C)C)cc1-c1cc2cnc(NCCO)nc2nc1C` [Example 16, 1-(3,3-Dimethylbutyl)-3-[2-fluoro-5-[2-(2-hydroxyethylamino)-7-methyl-pyrido[2,3-d]pyrimidin-6-yl]-4-methyl-phenyl]urea]: the IC50 is below 150 nM in assay [1], below 0.15 µM in assay [2], 100 to 1000 nM in assay [3] and below 100 nM in assay [4].

Consider `CNc1ncc2cc(-c3ccc(F)c(NC(=O)NCCC(C)(C)C#N)c3)c(C)nc2n1` [Example 13, 1-(3-Cyano-3-methylbutyl)-3-(2-fluoro-5-(7-methyl-2-(methylamino)pyrido[2,3-d]pyrimidin-6-yl)phenyl)urea], for which the IC50 is below 150 nM in assay [1], below 0.15 µM in assay [2], 1000 to 10000 nM in assay [3] and 1000 to 10000 nM in assay [4].

For `CNc1ncc2cc(-c3cc(NC(=O)NCCC(C)(C)C)c(F)cc3F)c(C)nc2n1` [Example 1, 1-(2,4-Difluoro-5-(7-methyl-2-(methylamino)pyrido[2,3-d]pyrimidin-6-yl)phenyl)-3-(3,3-dimethylbutyl)urea], the IC50 in assay [1] was below 150 nM; in assay [2], below 0.15 µM; in assay [3], 100 to 1000 nM; in assay [4] it was below 100 nM.

As for `CNc1ncc2cc(-c3cc(NC(=O)NCCC(C)(C)F)c(F)cc3C)c(C)nc2n1` [Example 4, 1-(3-Fluoro-3-methylbutyl)-3-(2-fluoro-4-methyl-5-(7-methyl-2-(methylamino)pyrido[2,3-d]pyrimidin-6-yl)phenyl)urea], the IC50 in assay [1] was below 150 nM; in assay [2] it was below 0.15 µM; in assay [3] it was 100 to 1000 nM; in assay [4] it was 100 to 1000 nM.

On to `CNc1ncc2cc(-c3cc(NC(=O)NCCC(C)(C)C#N)c(F)cc3C)c(C)nc2n1` [Example 3, 1-(3-Cyano-3-methylbutyl)-3-(2-fluoro-4-methyl-5-(7-methyl-2-(methylamino)pyrido[2,3-d]pyrimidin-6-yl)phenyl)urea], for which the IC50 in assay [1] is below 150 nM; in assay [2], below 0.15 µM; in assay [3], 100 to 1000 nM; in assay [4] it was below 100 nM.

As to `CCNc1ncc2cc(-c3cc(NC(=O)NCCC(C)(C)F)c(F)cc3C)c(C)nc2n1` [Example 26, 1-(5-(2-(Ethylamino)-7-methylpyrido[2,3-d]pyrimidin-6-yl)-2-fluoro-4-methylphenyl)-3-(3-fluoro-3-methylbutyl)urea], the IC50 was below 150 nM in assay [1], below 0.15 µM in assay [2], 1000 to 10000 nM in assay [3] and 100 to 1000 nM in assay [4].

For `CC(=O)Nc1ncc2cc(-c3cc(NC(=O)NCCC(C)(C)C)c(F)cc3C)c(C)nc2n1` [Example 33, N-(6-(5-(3-(3,3-Dimethylbutyl)ureido)-4-fluoro-2-methylphenyl)-7-methylpyrido[2,3-d]pyrimidin-2-yl)acetamide], the IC50 in assay [1] is below 150 nM; in assay [2], below 0.15 µM; in assay [3] it was 100 to 1000 nM; in assay [4], below 100 nM.

In the case of `COCCNc1ncc2cc(-c3cc(NC(=O)NC4CC(C)(C)C4)c(F)cc3C)c(C)nc2n1` [Example 31, 1-(3,3-Dimethylcyclobutyl)-3-(2-fluoro-5-(2-((2-methoxyethyl)amino)-7-methylpyrido[2,3-d]pyrimidin-6-yl)-4-methylphenyl)urea], the IC50 was below 150 nM in assay [1], below 0.15 µM in assay [2], 100 to 1000 nM in assay [3] and below 100 nM in assay [4].

As for `Cc1cc(F)c(NC(=O)NCCC(C)(C)C)cc1-c1cc2cnc(NCCN(C)C)nc2nc1C` [Example 17, 1-[5-[2-(2-Dimethylaminoethylamino)-7-methyl-pyrido[2,3-d]pyrimidin-6-yl]-2-fluoro-4-methyl-phenyl]-3-(3,3-dimethylbutyl)urea], the IC50 was below 150 nM in assay [1], below 0.15 µM in assay [2], 100 to 1000 nM in assay [3] and below 100 nM in assay [4].

As to `CNc1ncc2cc(-c3cc(NC(=O)NCC(O)C(C)(C)C)c(F)cc3C)c(C)nc2n1` (stereo not shown) [Example 15, 1-[2-Fluoro-4-methyl-5-(7-methyl-2-methylamino-pyrido[2,3-d]pyrimidin-6-yl)phenyl]-3-(2-hydroxy-3,3-dimethyl-butyl)urea], the IC50 in assay [1] was below 150 nM; in assay [2], below 0.15 µM; in assay [3], 100 to 1000 nM; in assay [4], below 100 nM.
